The subject of data set [1] is RAW264.7. The data set is described as follows: Antiinflammatory activity against mouse RAW 264.7 cells assessed as inhibition of LPS-induced translocation into nucleus at 50 uM by preincubated for 1 hr followed by LPS addition measured after 16 hrs by immunofluorescence assay. The class given is functional, cell-based. The following applies: time 17.0 hrs.
Data set [2] relates to RAW264.7. In words: Antiinflammatory activity against mouse RAW 264.7 cells assessed as inhibition of LPS-induced iNOS production at 50 uM preincubated for 1 hr followed by LPS addition measured after 16 hrs by Western blot analysis. As to conditions: time 17.0 hrs. In kind it is functional, cell-based.
The test system of data set [3] is RAW264.7. The data set is described as follows: Antiinflammatory activity against mouse RAW 264.7 cells assessed as inhibition of LPS-induced COX2 production at 50 uM preincubated for 1 hr followed by LPS addition measured after 16 hrs by Western blot analysis. The class given is functional, cell-based. The following applies: time 17.0 hrs. (In general: In western blotting, separated proteins are transferred to a membrane and probed.)

In data set [4] the test system is RAW264.7. The data set is described as follows: Antiinflammatory activity against mouse RAW 264.7 cells assessed as inhibition of LPS-induced NO production at 50 uM incubated for 24 hrs by Griess assay relative to control. The class given is functional. For orientation: Nitrite, measured by Griess reagent, commonly stands in for NO production.
In data set [5] the test system is RAW264.7. The data set is described as follows: Antiinflammatory activity against mouse RAW 264.7 cells assessed as inhibition of LPS-induced IL-1alpha mRNA level at 50 uM preincubated for 1 hr followed by LPS addition measured after 16 hrs by RT-PCR analysis. In kind it is functional, cell-based. As to conditions: time 17.0 hrs.
The test system of data set [6] is RAW264.7. In words: Antiinflammatory activity against mouse RAW 264.7 cells assessed as inhibition of LPS-induced IL-6 mRNA level at 50 uM preincubated for 1 hr followed by LPS addition measured after 16 hrs by RT-PCR analysis. As to conditions: time 17.0 hrs. The class given is functional, cell-based.
The subject of data set [7] is RAW264.7. In words: Antiinflammatory activity against mouse RAW 264.7 cells assessed as inhibition of LPS-induced IL-1beta mRNA level at 50 uM preincubated for 1 hr followed by LPS addition measured after 16 hrs by RT-PCR analysis. The class given is functional, cell-based. The following applies: time 17.0 hrs.
The test system of data set [8] is RAW264.7. The data set is described as follows: Antiinflammatory activity against mouse RAW 264.7 cells assessed as inhibition of LPS-induced TNF-alpha mRNA level at 50 uM preincubated for 1 hr followed by LPS addition measured after 16 hrs by RT-PCR analysis. The class given is functional, cell-based. As to conditions: time 17.0 hrs.
Data set [9] relates to RAW264.7. The data set is described as follows: Cytotoxicity against mouse RAW 264.7 cells incubated for 24 hrs by MTT assay. The class given is cell-based. As to conditions: raw264.7, 24 h.
For data set [10], the system named is RAW264.7. The data set is described as follows: Antiinflammatory activity against mouse RAW 264.7 cells assessed as inhibition of LPS-induced NO production incubated for 24 hrs by Griess assay. The class given is functional, cell-based. As to conditions: RAW264.7, 24 h.
In data set [11] the test system is RAW264.7. The data set is described as follows: Antiinflammatory activity against mouse RAW 264.7 cells assessed as inhibition of LPS-induced IkappaB-alpha level preincubated for 1 hr followed by LPS addition measured after 16 hrs by Western blot analysis. The following applies: time 17.0 hrs. In kind it is functional, cell-based.
The test system of data set [12] is RAW264.7. The data set is described as follows: Antiinflammatory activity against mouse RAW 264.7 cells assessed as inhibition of LPS-induced translocation into nucleus upto 50 uM by preincubated for 1 hr followed by LPS addition measured after 16 hrs by immunofluorescence assay. The class given is functional, cell-based. As to conditions: dose microM <=50, time 17.0 hrs.

Data set [13] relates to RAW264.7. The data set is described as follows: Antiinflammatory activity against mouse RAW 264.7 cells assessed as inhibition of LPS-induced iNOS production preincubated for 1 hr followed by LPS addition measured after 16 hrs by Western blot analysis. In kind it is functional, cell-based. As to conditions: time 17.0 hrs.
For data set [14], the system named is RAW264.7. In words: Antiinflammatory activity against mouse RAW 264.7 cells assessed as inhibition of LPS-induced COX2 production preincubated for 1 hr followed by LPS addition measured after 16 hrs by Western blot analysis. In kind it is functional, cell-based. As to conditions: time 17.0 hrs.
Data set [15] deals with RAW264.7. The data set is described as follows: Antiinflammatory activity against mouse RAW 264.7 cells assessed as inhibition of LPS-induced IL-6 mRNA level upto 50 uM preincubated for 1 hr followed by LPS addition measured after 16 hrs by RT-PCR analysis. As to conditions: dose microM <=50, time 17.0 hrs. The class given is functional, cell-based.
Data set [16] relates to RAW264.7. The data set is described as follows: Antiinflammatory activity against mouse RAW 264.7 cells assessed as inhibition of LPS-induced IL-1alpha mRNA level upto 50 uM preincubated for 1 hr followed by LPS addition measured after 16 hrs by RT-PCR analysis. In kind it is functional, cell-based. As to conditions: dose microM <=50, time 17.0 hrs.
In data set [17] the test system is RAW264.7. In words: Antiinflammatory activity against mouse RAW 264.7 cells assessed as inhibition of LPS-induced IL-1beta mRNA level upto 50 uM preincubated for 1 hr followed by LPS addition measured after 16 hrs by RT-PCR analysis. In kind it is functional, cell-based. As to conditions: dose microM <=50, time 17.0 hrs.
For data set [18], the system named is RAW264.7. In words: Antiinflammatory activity against mouse RAW 264.7 cells assessed as inhibition of LPS-induced TNF-alpha mRNA level upto 50 uM preincubated for 1 hr followed by LPS addition measured after 16 hrs by RT-PCR analysis. In kind it is functional, cell-based. The following applies: dose microM <=50, time 17.0 hrs.
In data set [19] the test system is RAW264.7. The data set is described as follows: Antiinflammatory activity against mouse RAW 264.7 cells assessed as inhibition of LPS-induced […] p-p65 level preincubated for 1 hr followed by LPS addition measured after 16 hrs by Western blot analysis. The class given is functional, cell-based. The following applies: time 17.0 hrs.

The source made the active and inactive calls. No cut-off for these calls is given here.

As for `O=C(NO)c1ccc(O)c(O)c1`, the inhibition result in data set [1], in data set [2], in [3], in data set [5], in data set [6] and in data set [7] was “Active” each time. In addition, the inhibition result in data set [8] was “Active”. Moreover, the inhibition at 50 µM in data set [4] is 70%.

In the case of `O=C1C[C@@H](O[C@@H]2O[C@H](CO)[C@H](O)[C@H](O)[C@H]2O)CO1`, in data set [9], the Activity entry is listed as “Non-Toxic”. Moreover, the IC50 in data set [10] came to 41.5 µM.

Consider `O=C1C[C@H](O[C@@H]2O[C@H](CO)[C@@H](O)[C@H](O)[C@H]2O)CO1` [GOODYEROSIDE], for which the inhibition entry in data set [11], in data set [12], in data set [15], in [16], in data set [17] and in data set [18] was “Active” in each case. In addition, the inhibition result in data set [19] was “Active”. The Activity entry in [9] is “Non-Toxic”. In addition, the inhibition result in [13] and in [14] was “Dose-dependent effect” throughout. In addition, the IC50 in data set [10] was found to be 27.9 µM.

Regarding `O=C1C[C@H](O[C@H]2O[C@H](CO)[C@@H](O)[C@H](O)[C@H]2O)CN1Cc1ccccc1`, in data set [10], the IC50 was 105 µM.

With `O=C1C[C@H](O[C@H]2O[C@H](CO)[C@@H](O)[C@H](O)[C@H]2O)CO1`, the half-inhibitory concentration (IC50) in [10] worked out at 91.3 µM.

Consider `O=C1C[C@@H](O[C@H]2O[C@H](CO)[C@@H](O)[C@H](O)[C@@H]2O)CN1Cc1ccccc1`, for which the half-maximal inhibitory concentration (IC50) in data set [10] was determined as 97.2 µM.

In the case of `O=C1C[C@@H](O[C@H]2O[C@H](CO)[C@@H](O)[C@H](O)[C@@H]2O)CN1`, the 50% inhibitory concentration (IC50) in data set [10] is 108 µM.

Take `O=C1C[C@H](O[C@H]2O[C@H](CO)[C@@H](O)[C@H](O)[C@@H]2O)CN1`: in data set [10], the IC50 was determined as 67.1 µM.

For `C[C@@H]1O[C@@H](O[C@@H]2COC(=O)C2)[C@H](O)[C@H](O)[C@H]1O`, in [10], the concentration for half-maximal inhibition (IC50) was 60.7 µM.

Consider `C[C@@H]1O[C@@H](O[C@H]2CC(=O)N(Cc3ccccc3)C2)[C@H](O)[C@H](O)[C@H]1O`, for which the IC50 in data set [10] worked out at 69.7 µM.

Take `C[C@@H]1O[C@@H](O[C@@H]2CC(=O)N(Cc3ccccc3)C2)[C@H](O)[C@H](O)[C@H]1O`: in data set [10], the IC50 was determined as 56 µM.

Consider `O=C1C[C@H](O[C@H]2O[C@H](CO)[C@@H](O)[C@H](O)[C@@H]2O)CN1Cc1ccccc1`, for which, in data set [10], the half-inhibitory concentration (IC50) is 64 µM.

`C[C@@H]1O[C@@H](O[C@H]2CNC(=O)C2)[C@H](O)[C@H](O)[C@H]1O`: the IC50 in [10] stood at 116 µM.

On to `O=C1C[C@H](O[C@H]2O[C@H](CO)[C@@H](O)[C@H](O)[C@@H]2O)CO1`, for which the Activity entry in data set [9] is recorded as “Non-Toxic”. Besides, the half-maximal inhibitory concentration (IC50) in data set [10] stood at 38.7 µM.

With `O=C1C[C@@H](O[C@H]2O[C@H](CO)[C@@H](O)[C@H](O)[C@H]2O)CN1Cc1ccccc1`, the IC50 in data set [10] came to 72.5 µM.

As for `O=C1C[C@@H](O[C@H]2O[C@H](CO)[C@@H](O)[C@H](O)[C@@H]2O)CO1`, the Activity entry in data set [9] is listed as “Non-Toxic”. In [10], the half-maximal inhibitory concentration (IC50) stood at 42.9 µM.

On to `C[C@@H]1O[C@@H](O[C@@H]2CNC(=O)C2)[C@H](O)[C@H](O)[C@H]1O`, for which the IC50 in [10] was 66.9 µM.

`O=C1C[C@H](O[C@H]2O[C@H](CO)[C@H](O)[C@H](O)[C@H]2O)CO1`: the half-maximal inhibitory concentration (IC50) in data set [10] was found to be 66.5 µM.

In the case of `C[C@@H]1O[C@@H](O[C@H]2COC(=O)C2)[C@H](O)[C@H](O)[C@H]1O`, the Activity entry in data set [9] was “Non-Toxic”. Besides, the half-inhibitory concentration (IC50) in data set [10] was found to be 41.2 µM.

For `O=C1C[C@@H](O[C@@H]2O[C@H](CO)[C@@H](O)[C@H](O)[C@H]2O)CO1`, in [9], the Activity entry was “Non-Toxic”. In addition, the IC50 in data set [10] was 41.9 µM.

`O=C1C[C@@H](O[C@H]2O[C@H](CO)[C@@H](O)[C@H](O)[C@H]2O)CN1`: in [10], the IC50 was found to be 89 µM.

As to `O=C1C[C@H](O[C@H]2O[C@H](CO)[C@@H](O)[C@H](O)[C@H]2O)CN1`, in data set [10], the IC50 came to 80.9 µM.

As usually defined, the inhibition is the relative decrease from the control value, in per cent. The term IC50 denotes the concentration at which inhibition is half-maximal.
